Measured values taken from US20240400560A1, “BICYCLIC HETEROCYCLIC DERIVATIVE HAVING VIRAL GROWTH INHIBITORY ACTIVITY AND PHARMACEUTICAL COMPOSITION CONTAINING SAME” (Shionogi & Co., Ltd., priority 2021, published 2024).

Key:
SARS-CoV-2 = experiment: Inhibitory activity of cytopathic effect (CPE) in Vero E6/TMPRSS2 cells; assay type: cell-based
SARS-CoV-2 3CL protease = SARS-CoV-2 3CL protease (Severe acute respiratory syndrome coronavirus 2, UniProt P0DTD1); experiment: Inhibitory activity test against SARS-CoV-2 3CL proteases; assay type: biochemical; conditions: read-out: IC50 (50% SARS-CoV-2 3CL protease inhibitory concentration)
[1] = Severe acute respiratory syndrome coronavirus 2, VeroE6/TMPRSS2, 72 h, 50% SARS-CoV-2 infected cell death inhibitory concentration, CellTiter-Glo 2.0 after 3 days culture
[2] = Severe acute respiratory syndrome coronavirus 2, VeroE6/TMPRSS2, 50% SARS-CoV-2 infected cell death inhibitory concentration, class symbols

Compound | EC50 (SARS-CoV-2; [1]) [nM] | IC50 (SARS-CoV-2 3CL protease) [nM] | EC50 (SARS-CoV-2; [2]) [nM]
COc1cc(-c2cc(C#N)ccc2Cl)cc2c1c(=O)n(Cc1ncn(C)n1)c(=O)n2Cc1cc(F)c(F)c(F)c1 [Compound I-0035] | 363 | 25 | –
COc1cc(-c2cc(CO)ccc2Cl)cc2c1c(=O)n(Cc1ncn(C)n1)c(=O)n2Cc1cc(F)c(F)c(F)c1 [Compound I-0036] | – | < 100 | 1000 to 10000
COc1cc(-c2cc3c(cc2Cl)NC(=O)C3)cc2c1c(=O)n(Cc1ncn(C)n1)c(=O)n2Cc1cc(F)c(F)c(F)c1F [Compound I-0047] | – | < 100 | 1000 to 10000
COc1cc(-c2cc3cn[nH]c3cc2Cl)cc2c1c(=O)n(Cc1ncn(C)n1)c(=O)n2Cc1cc(F)c(F)c(F)c1F [Compound I-0048] | 537 | 11 | –
Cc1cncc(-n2c(=O)c3c(F)cc(-c4cc(C#N)ccc4Cl)cc3n(Cc3cc(F)c(F)c(F)c3)c2=O)c1 [Compound I-0049] | – | < 100 | < 1000
Cc1cncc(-n2c(=O)c3c(F)cc(-c4cc(C(N)=O)ccc4Cl)cc3n(Cc3ccc(F)c(C#N)c3)c2=O)c1 [Compound I-0051] | – | < 100 | 1000 to 10000
Cc1cncc(-n2c(=O)c3c(F)cc(-c4cc(CO)ccc4Cl)cc3n(Cc3cc(F)c(F)c(F)c3)c2=O)c1 [Compound I-0052] | – | < 100 | < 1000
COc1cc(-c2cc(C#N)ccc2Cl)cc2c1c(=O)n(Cc1ncn(C)n1)c(=O)n2Cc1cc(F)c(F)c(F)c1F [Compound I-0053] | 497 | 30 | –
Cc1cncc(-n2c(=O)c3c(F)cc(-c4cc(CO)ccc4Cl)cc3n(Cc3ccc(F)c(C#N)c3)c2=O)c1 [Compound I-0054] | – | < 100 | < 1000
Cc1cncc(-n2c(=O)c3c(F)cc(-c4cc(C(N)=O)ccc4Cl)cc3n(Cc3cc(F)c(F)cc3F)c2=O)c1 [Compound I-0055] | – | < 100 | < 1000
COc1cc(-c2cc3c(cc2Cl)NC(=O)C3)cc2c1c(=O)n(-c1cncc(C)c1)c(=O)n2Cc1cc(F)c(F)c(F)c1 [Compound I-0058] | 194 | 1.5 | –
COc1cc(-c2cc3c(cc2Cl)NC(=O)C3)cc2c1c(=O)n(-c1cncc(C)c1)c(=O)n2Cc1cc(Cl)c(F)cn1 [Compound I-0059] | 335 | 2 | –
COc1cc(-c2cc3cn[nH]c3cc2Cl)cc2c1c(=O)n(-c1cncc(C)c1)c(=O)n2Cc1ccc(F)c(C#N)c1 [Compound I-0063] | – | < 100 | < 1000
COc1cc(-c2cc3c(cc2Cl)NC(=O)C3)cc2c1c(=O)n(-c1cncc(Cl)c1)c(=O)n2Cc1cc(F)c(F)c(F)c1 [Compound I-0065] | – | < 100 | < 1000
COc1cc(-c2cc(S(N)(=O)=O)ccc2Cl)cc2c1c(=O)n(-c1cncc(C)c1)c(=O)n2Cc1ccc(F)c(C#N)c1 [Compound I-0066] | 11100 | 5 | –
COc1cc(-c2cc(C(N)=O)ccc2Cl)cc2c1c(=O)n(-c1cncc(C)c1)c(=O)n2Cc1cc(F)c(F)c(F)c1 [Compound I-0067] | – | < 100 | < 1000
COc1cc(-c2cc(NS(C)(=O)=O)ccc2Cl)cc2c1c(=O)n(-c1cncc(C)c1)c(=O)n2Cc1ccc(F)c(C#N)c1 [Compound I-0072] | 2430 | 10 | –
Cc1cncc(-n2c(=O)c3c(F)cc(-c4cc(C(N)=O)ccc4Cl)cc3n(Cc3cc(F)c(F)c(F)c3)c2=O)c1 [Compound I-0073] | – | < 100 | < 1000
COc1cc(-c2cc(-c3cnn(C)c3)ccc2Cl)cc2c1c(=O)n(-c1cncc(C)c1)c(=O)n2Cc1ccc(F)c(C#N)c1 [Compound I-0074] | 1830 | 12 | –
COCc1ccc(Cl)c(-c2cc(OC)c3c(=O)n(-c4cncc(C)c4)c(=O)n(Cc4ccc(F)c(C#N)c4)c3c2)c1 [Compound I-0076] | 489 | 20 | –
COc1cc(-c2cc(C(C)=O)ccc2Cl)cc2c1c(=O)n(Cc1ncn(C)n1)c(=O)n2Cc1cc(F)c(F)c(F)c1 [Compound I-0116] | 1750 | 12 | –
COc1cc(-c2cc3c(cc2Cl)NC(=O)C3)cc2c1c(=O)n(Cc1ncn(C)n1)c(=O)n2Cc1cc(F)c(F)c(F)c1 [Compound I-0139] | 3620 | 4.5 | –

Compound | EC50 (SARS-CoV-2; [1]) [nM] | IC50 (SARS-CoV-2 3CL protease) [nM] | EC50 (SARS-CoV-2; [2]) [nM]
COc1cc(-c2cc3c(cc2Cl)NC(=O)C3)cc2c1c(=O)n(-c1cncc(C)c1)c(=O)n2Cc1cc(C#N)c(F)cc1C [Compound I-0160] | 670 | 0.73 | –
COc1cc(-c2cc3cn[nH]c3cc2Cl)cc2c1c(=O)n(-c1cncc(C)c1)c(=O)n2Cc1cc(C#N)c(F)cc1C [Compound I-0163] | 273 | 1.1 | –
COc1cc(-c2cc(C#N)ccc2Cl)cc2c1c(=O)n(-c1cncc(C)c1)c(=O)n2Cc1cc(C#N)c(F)cc1C [Compound I-0164] | 80 | 1.2 | –
COc1cc(-c2cc3cn[nH]c3cc2Cl)cc2c1c(=O)n(-c1cncc(C)c1)c(=O)n2Cc1cc(F)c(F)c(C#N)c1 [Compound I-0166] | – | < 100 | < 1000
COc1cc(-c2cc3c(cc2Cl)NC(=O)C3)cc2c1c(=O)n(-c1cncc(C)c1)c(=O)n2Cc1cc(C#N)ccc1Cl [Compound I-0167] | 528 | 1.9 | –
COc1cc(-c2cc(C#N)ccc2Cl)cc2c1c(=O)n(-c1cncc(C)c1)c(=O)n2Cc1cc(C#N)ccc1Cl [Compound I-0168] | – | < 100 | < 1000
COc1cc(-c2cc3cn[nH]c3cc2Cl)cc2c1c(=O)n(-c1cncc(C)c1)c(=O)n2Cc1cc(C#N)ccc1Cl [Compound I-0170] | – | < 100 | < 1000
COc1cc(-c2cc(C(=O)NCCN(C)C)ccc2Cl)cc2c1c(=O)n(-c1cncc(C)c1)c(=O)n2Cc1ccc(F)c(C#N)c1 [Compound I-0190] | – | < 100 | 1000 to 10000
COc1cc(-c2cc(C(=O)NCCO)ccc2Cl)cc2c1c(=O)n(-c1cncc(C)c1)c(=O)n2Cc1ccc(F)c(C#N)c1 [Compound I-0194] | – | < 100 | 1000 to 10000
COCCNC(=O)c1ccc(Cl)c(-c2cc(OC)c3c(=O)n(-c4cncc(C)c4)c(=O)n(Cc4ccc(F)c(C#N)c4)c3c2)c1 [Compound I-0195] | – | < 100 | 1000 to 10000
COc1cc(-c2cc(C(=O)N(C)C)ccc2Cl)cc2c1c(=O)n(-c1cncc(C)c1)c(=O)n2Cc1ccc(F)c(C#N)c1 [Compound I-0200] | – | < 100 | 1000 to 10000
COc1cc(-c2cc(C(=O)N3CCN(C)CC3)ccc2Cl)cc2c1c(=O)n(-c1cncc(C)c1)c(=O)n2Cc1ccc(F)c(C#N)c1 [Compound I-0208] | – | < 100 | 1000 to 10000
COc1cc(-c2cc3c(cc2Cl)NC(=O)C3)cc2c1c(=O)n(Cc1ncn(C)n1)c(=O)n2Cc1cc(F)c(F)c(Cl)c1 [Compound I-0263] | 736 | 0.99 | –
COc1cc(-c2cc3cn[nH]c3cc2Cl)cc2c1c(=O)n(Cc1ncn(C)n1)c(=O)n2Cc1cc(F)c(F)c(Cl)c1 [Compound I-0264] | 349 | 2.6 | –
COc1cc(-c2cc3c(cc2Cl)NC(=O)C3)cc2c1c(=O)n(Cc1ncn(C)n1)c(=O)n2Cc1cc(Cl)c(F)cc1F [Compound I-0266] | – | < 100 | < 1000
COc1cc(-c2cc3c(cc2Cl)NC(=O)C3)cc2c1c(=O)n(Cc1ncn(C)n1)c(=O)n2Cc1cc(F)c(F)cc1F [Compound I-0273] | – | < 100 | 1000 to 10000
Cn1cnc(Cn2c(=O)c3c(F)cc(-c4cc5c(cc4Cl)NC(=O)C5)cc3n(Cc3cc(F)c(F)cc3F)c2=O)n1 [Compound I-0280] | – | < 100 | 1000 to 10000
CC(=O)c1ccc(Cl)c(-c2ccc3c(=O)n(Cc4ccc[nH]c4=O)c(=O)n(Cc4cc(F)c(F)c(F)c4)c3c2)c1 [Compound I-0284] | – | < 100 | 1000 to 10000
CNC(=O)c1ccc(Cl)c(-c2ccc3c(=O)n(Cc4ccc[nH]c4=O)c(=O)n(Cc4cc(F)c(F)c(F)c4)c3c2)c1 [Compound I-0285] | – | < 100 | 1000 to 10000
CCOc1cc(-c2cc(C#N)ccc2Cl)cc2c1c(=O)n(-c1cncc(C)c1)c(=O)n2Cc1ccc(F)c(C#N)c1 [Compound I-0295] | 426 | 15 | –
O=c1[nH]cccc1Cn1c(=O)c2ccc3ccccc3c2n(Cc2cc(F)c(F)c(F)c2)c1=O [Compound I-0315] | 411 | 350 | –
